Experimental data from ChEMBL document CHEMBL1201862, “PubChem BioAssay data set” (2004).
Activity calls are given as the source filed them.

What was measured:
Assay type in all cases: functional
[1] = biological target: Cyclin-dependent kinase 8 (Homo sapiens, UniProt P49336); assay: Navigating the Kinome. Panel member name: CDK8
[2] = biological target: Mitogen-activated protein kinase 10 (Homo sapiens, UniProt P53779); assay: Navigating the Kinome. Panel member name: MAPK10
[3] = biological target: ALK tyrosine kinase receptor (Homo sapiens, UniProt Q9UM73);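 note: ALK tested as one member of a kinase panel screen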
[4] = biological target: Dual specificity mitogen-activated protein kinase kinase 2 (Homo sapiens, UniProt P36507); assay: Navigating the Kinome. Panel member name: MAP2K2
[5] = biological target: Fibroblast growth factor receptor 1 (Homo sapiens, UniProt P11362)
[6] = biological target: Rho-associated protein kinase 1 (Homo sapiens, UniProt Q13464);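 note: measured within a broad kinome-wide panel profiling many kinases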
[7] = biological target: Leucine-rich repeat serine/threonine-protein kinase 2 (Homo sapiens, UniProt Q5S007);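 note: value from a broad kinome-wide panel profiling study in which LRRK2 was one of the kinases tested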
[8] = biological target: Insulin-like growth factor 1 receptor (Homo sapiens, UniProt P08069); assay: Navigating the Kinome. Panel member name: IGF1R
[9] = biological target: Mast/stem cell growth factor receptor Kit (Homo sapiens, UniProt P10721);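 note: KIT entry within a kinase panel assay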
[10] = biological target: Vascular endothelial growth factor receptor 2 (Homo sapiens, UniProt P35968)
Activin receptor type-1 = biological target: T1, Activin receptor type-1 (Homo sapiens, UniProt Q04771); assay: Navigating the Kinome. Panel member name: ACVR1
T1 sequence (Q04771 whole entry): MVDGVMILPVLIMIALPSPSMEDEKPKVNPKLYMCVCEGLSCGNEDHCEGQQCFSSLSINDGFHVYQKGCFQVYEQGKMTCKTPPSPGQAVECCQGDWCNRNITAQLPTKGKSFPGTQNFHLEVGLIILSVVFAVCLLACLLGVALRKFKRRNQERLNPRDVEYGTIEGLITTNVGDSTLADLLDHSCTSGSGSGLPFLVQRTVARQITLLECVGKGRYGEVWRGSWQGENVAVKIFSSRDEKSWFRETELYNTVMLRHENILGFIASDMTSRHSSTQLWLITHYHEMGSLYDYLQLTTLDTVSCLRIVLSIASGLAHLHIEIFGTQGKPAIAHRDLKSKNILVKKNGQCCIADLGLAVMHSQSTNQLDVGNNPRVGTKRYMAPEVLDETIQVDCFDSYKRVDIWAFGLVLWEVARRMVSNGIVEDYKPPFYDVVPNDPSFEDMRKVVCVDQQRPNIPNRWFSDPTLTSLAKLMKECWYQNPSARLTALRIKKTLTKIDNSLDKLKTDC

[11] = biological target: Platelet-derived growth factor receptor alpha (Homo sapiens, UniProt P16234); assay: Navigating the Kinome. Panel member name: PDGFRA
[12] = biological target: Tyrosine-protein kinase JAK3 (Homo sapiens, UniProt P52333)
[13] = biological target: Calcium/calmodulin-dependent protein kinase type II subunit alpha (Homo sapiens, UniProt Q9UQM7); assay: Navigating the Kinome. Panel member name: CAMK2A
[14] = biological target: Serine/threonine-protein kinase PAK 4 (Homo sapiens, UniProt O96013);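 note: value obtained within a kinome profiling panel in which PAK4 was one of the panel members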
[15] = biological target: MAP/microtubule affinity-regulating kinase 3 (Homo sapiens, UniProt P27448);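 note: MARK3 affinity measured as one member of a kinome panel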
[16] = biological target: Death-associated protein kinase 3 (Homo sapiens, UniProt O43293);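 note: measured as one member of a kinome-wide profiling panel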

Measured: Ki

Sequence of Dual specificity mitogen-activated protein kinase kinase 2 (P36507 whole entry): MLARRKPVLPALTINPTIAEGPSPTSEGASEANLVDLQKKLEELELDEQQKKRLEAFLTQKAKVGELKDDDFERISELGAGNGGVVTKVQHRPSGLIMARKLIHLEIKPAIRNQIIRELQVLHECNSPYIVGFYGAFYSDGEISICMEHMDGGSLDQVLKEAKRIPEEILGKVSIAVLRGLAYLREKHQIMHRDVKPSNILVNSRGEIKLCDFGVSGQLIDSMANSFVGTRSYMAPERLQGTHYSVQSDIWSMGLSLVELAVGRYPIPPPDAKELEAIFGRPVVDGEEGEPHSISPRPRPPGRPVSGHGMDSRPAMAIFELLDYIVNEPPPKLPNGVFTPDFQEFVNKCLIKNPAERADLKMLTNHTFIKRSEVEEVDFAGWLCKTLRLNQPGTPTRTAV
Sequence of Insulin-like growth factor 1 receptor (P08069 31-736 limits assumed): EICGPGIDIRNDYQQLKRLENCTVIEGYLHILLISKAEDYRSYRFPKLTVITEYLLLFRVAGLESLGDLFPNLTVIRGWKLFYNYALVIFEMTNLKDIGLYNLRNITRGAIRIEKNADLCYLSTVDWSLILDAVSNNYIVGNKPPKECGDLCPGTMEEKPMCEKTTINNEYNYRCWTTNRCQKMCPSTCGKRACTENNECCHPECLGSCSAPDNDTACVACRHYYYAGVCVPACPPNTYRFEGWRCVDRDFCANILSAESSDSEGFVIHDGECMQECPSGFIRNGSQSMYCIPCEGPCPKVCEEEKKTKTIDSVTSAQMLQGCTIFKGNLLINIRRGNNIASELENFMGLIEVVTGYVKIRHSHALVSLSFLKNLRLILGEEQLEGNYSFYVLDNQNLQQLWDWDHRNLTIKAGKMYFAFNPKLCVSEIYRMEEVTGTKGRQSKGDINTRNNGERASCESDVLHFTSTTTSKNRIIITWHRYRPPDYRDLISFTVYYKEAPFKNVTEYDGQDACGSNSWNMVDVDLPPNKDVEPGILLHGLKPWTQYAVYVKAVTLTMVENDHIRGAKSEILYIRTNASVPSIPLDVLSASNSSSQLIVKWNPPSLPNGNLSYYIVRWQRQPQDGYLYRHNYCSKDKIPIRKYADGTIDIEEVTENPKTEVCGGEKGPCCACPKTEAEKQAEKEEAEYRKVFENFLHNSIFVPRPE
Sequence of Insulin-like growth factor 1 receptor (P08069 741-1367 limits assumed): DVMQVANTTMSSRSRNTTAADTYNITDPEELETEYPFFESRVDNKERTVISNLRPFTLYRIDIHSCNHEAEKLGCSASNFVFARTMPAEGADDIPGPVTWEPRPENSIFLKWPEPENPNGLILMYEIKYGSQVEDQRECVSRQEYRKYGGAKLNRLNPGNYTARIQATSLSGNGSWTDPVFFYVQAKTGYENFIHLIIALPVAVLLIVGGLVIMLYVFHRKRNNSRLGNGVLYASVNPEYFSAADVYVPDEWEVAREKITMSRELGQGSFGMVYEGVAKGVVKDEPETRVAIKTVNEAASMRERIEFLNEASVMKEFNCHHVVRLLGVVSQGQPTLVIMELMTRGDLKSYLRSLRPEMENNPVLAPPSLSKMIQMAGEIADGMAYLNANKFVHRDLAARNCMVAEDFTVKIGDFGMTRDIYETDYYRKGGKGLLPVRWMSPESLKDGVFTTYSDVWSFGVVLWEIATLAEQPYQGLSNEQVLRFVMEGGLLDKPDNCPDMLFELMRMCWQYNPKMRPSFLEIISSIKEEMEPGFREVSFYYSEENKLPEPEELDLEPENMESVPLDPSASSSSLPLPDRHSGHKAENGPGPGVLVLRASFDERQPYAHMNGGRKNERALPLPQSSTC
Sequence of Fibroblast growth factor receptor 1 (P11362 whole entry): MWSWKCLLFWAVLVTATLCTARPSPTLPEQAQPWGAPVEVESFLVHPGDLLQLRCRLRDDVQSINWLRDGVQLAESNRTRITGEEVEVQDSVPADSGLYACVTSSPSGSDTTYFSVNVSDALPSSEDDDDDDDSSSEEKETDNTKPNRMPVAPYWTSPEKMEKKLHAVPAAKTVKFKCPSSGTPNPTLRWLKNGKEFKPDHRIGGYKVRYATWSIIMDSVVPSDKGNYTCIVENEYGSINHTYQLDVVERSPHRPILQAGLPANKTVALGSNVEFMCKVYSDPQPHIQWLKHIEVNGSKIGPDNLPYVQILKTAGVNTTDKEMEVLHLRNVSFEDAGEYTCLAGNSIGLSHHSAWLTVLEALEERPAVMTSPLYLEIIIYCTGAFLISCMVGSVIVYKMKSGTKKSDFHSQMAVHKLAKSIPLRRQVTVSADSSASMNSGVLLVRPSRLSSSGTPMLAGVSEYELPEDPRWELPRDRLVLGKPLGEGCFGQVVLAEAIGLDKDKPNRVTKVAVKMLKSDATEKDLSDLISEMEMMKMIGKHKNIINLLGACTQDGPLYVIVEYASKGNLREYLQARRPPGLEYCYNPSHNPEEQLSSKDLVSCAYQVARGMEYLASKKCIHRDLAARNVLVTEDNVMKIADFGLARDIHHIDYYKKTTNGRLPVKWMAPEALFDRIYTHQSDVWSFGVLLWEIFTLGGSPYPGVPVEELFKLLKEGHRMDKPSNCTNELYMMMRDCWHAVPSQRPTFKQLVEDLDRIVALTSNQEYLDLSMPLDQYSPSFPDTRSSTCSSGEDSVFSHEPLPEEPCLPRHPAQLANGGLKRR
Sequence of Platelet-derived growth factor receptor alpha (P16234 whole entry): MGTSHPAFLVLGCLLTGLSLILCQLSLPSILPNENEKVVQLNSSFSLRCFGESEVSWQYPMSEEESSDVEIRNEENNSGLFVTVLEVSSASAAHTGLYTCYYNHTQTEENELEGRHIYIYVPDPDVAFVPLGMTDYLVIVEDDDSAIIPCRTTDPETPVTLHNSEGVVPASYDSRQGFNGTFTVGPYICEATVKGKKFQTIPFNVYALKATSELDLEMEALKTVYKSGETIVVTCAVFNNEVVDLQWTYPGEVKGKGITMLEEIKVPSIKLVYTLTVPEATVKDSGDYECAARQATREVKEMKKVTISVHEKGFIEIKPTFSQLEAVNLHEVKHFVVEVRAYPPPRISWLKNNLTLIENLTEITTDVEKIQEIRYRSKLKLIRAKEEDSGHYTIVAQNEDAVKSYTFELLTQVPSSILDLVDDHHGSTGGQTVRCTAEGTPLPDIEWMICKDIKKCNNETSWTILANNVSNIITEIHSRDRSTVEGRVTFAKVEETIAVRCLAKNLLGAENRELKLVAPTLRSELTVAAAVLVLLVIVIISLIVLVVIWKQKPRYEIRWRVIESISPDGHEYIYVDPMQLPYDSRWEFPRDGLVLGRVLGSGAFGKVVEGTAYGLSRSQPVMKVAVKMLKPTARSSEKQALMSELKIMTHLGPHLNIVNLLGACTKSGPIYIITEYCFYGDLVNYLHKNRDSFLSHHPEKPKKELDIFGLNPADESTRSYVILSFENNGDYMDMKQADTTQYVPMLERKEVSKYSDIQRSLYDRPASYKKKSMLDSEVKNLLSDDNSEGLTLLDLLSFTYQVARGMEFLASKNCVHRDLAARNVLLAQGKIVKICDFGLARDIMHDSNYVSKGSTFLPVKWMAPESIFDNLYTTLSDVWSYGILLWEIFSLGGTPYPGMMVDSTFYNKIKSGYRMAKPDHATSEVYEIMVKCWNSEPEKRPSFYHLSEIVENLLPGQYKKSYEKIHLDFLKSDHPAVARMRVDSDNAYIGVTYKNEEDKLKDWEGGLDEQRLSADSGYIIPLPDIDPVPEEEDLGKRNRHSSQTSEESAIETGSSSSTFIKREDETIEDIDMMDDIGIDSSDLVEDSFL
Sequence of Rho-associated protein kinase 1 (Q13464 whole entry): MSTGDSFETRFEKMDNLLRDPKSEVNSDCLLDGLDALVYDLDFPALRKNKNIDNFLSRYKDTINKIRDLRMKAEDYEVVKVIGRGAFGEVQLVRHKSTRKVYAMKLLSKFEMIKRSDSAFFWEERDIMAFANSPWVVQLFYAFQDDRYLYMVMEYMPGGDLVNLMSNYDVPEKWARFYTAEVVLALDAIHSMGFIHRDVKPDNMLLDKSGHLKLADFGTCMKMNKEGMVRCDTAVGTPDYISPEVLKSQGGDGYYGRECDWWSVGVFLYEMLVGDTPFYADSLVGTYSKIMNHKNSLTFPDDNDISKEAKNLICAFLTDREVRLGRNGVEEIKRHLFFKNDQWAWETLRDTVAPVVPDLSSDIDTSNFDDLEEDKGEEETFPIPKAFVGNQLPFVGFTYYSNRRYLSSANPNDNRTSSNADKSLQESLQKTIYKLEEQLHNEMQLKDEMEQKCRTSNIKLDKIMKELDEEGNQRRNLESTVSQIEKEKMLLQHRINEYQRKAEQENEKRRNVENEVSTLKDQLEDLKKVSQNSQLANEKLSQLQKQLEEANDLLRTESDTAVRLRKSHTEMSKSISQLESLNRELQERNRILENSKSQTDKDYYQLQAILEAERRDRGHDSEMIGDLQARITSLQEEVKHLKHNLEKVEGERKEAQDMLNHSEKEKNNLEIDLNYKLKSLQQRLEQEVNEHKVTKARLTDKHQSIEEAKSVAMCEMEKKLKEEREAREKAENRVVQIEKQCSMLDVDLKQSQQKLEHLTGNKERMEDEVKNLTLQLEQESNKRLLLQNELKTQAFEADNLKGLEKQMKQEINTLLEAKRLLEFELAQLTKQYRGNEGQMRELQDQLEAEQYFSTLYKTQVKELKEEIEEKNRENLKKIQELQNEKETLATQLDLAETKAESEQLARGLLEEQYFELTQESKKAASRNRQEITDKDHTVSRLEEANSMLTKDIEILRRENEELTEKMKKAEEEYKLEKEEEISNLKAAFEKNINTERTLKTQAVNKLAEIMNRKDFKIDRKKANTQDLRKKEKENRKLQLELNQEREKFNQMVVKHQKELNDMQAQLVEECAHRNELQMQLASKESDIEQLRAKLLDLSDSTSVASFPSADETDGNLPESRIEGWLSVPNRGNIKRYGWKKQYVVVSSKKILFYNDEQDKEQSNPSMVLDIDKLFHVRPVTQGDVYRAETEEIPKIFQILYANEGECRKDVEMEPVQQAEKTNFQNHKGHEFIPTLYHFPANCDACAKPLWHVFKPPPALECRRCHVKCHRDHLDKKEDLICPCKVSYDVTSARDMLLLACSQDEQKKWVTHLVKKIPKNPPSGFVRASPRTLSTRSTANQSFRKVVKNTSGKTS

NC(=O)c1ccc(-c2nc(-c3ccc4c(c3)OCO4)c(-c3ccccn3)[nH]2)cc1 [SB-431542]
inactive: [1] > 3.98 µM | [2] > 3.16 µM | [3] > 6.31 µM | [4] > 3.98 µM | [5] > 3.98 µM | [6] > 3.98 µM | [7] > 2.51 µM | [8] > 2.51 µM | [9] > 6.31 µM | [10] > 2.51 µM | Activin receptor type-1 > 3.98 µM | [11] > 2.51 µM | [12] > 5.01 µM | [13] > 7.94 µM | [14] > 5.01 µM | [15] > 5.01 µM | [16] > 5.01 µM
